Source: patent publication EP4768487A1, “FUSED LACTAM RING COMPOUND AND USE THEREOF” (Chengdu Zenitar Biomedical Technology Co., Ltd., priority 2023, dated 2025)
Like-named read-outs stand apart in the source and are kept apart here.

Experiments:
[1] = biological target: T1, hERG potassium ion channel (Homo sapiens, UniProt Q12809); test: Inhibition of hERG potassium ion channel (Qpatch, CHO cells stably expressing hERG); assay type: cell-based; conditions: for inhibitory effects on the hERG potassium ion channel (in words): conclusion of Table 17; for inhibition at 2.5 min, 20 µM: human, CHO cells stably expressing hERG, read-out: Inhibition rate at 20 µM
T1 construct: expressed in transfected cells; host or cells: CHO cells
T1 sequence (Q12809 whole entry): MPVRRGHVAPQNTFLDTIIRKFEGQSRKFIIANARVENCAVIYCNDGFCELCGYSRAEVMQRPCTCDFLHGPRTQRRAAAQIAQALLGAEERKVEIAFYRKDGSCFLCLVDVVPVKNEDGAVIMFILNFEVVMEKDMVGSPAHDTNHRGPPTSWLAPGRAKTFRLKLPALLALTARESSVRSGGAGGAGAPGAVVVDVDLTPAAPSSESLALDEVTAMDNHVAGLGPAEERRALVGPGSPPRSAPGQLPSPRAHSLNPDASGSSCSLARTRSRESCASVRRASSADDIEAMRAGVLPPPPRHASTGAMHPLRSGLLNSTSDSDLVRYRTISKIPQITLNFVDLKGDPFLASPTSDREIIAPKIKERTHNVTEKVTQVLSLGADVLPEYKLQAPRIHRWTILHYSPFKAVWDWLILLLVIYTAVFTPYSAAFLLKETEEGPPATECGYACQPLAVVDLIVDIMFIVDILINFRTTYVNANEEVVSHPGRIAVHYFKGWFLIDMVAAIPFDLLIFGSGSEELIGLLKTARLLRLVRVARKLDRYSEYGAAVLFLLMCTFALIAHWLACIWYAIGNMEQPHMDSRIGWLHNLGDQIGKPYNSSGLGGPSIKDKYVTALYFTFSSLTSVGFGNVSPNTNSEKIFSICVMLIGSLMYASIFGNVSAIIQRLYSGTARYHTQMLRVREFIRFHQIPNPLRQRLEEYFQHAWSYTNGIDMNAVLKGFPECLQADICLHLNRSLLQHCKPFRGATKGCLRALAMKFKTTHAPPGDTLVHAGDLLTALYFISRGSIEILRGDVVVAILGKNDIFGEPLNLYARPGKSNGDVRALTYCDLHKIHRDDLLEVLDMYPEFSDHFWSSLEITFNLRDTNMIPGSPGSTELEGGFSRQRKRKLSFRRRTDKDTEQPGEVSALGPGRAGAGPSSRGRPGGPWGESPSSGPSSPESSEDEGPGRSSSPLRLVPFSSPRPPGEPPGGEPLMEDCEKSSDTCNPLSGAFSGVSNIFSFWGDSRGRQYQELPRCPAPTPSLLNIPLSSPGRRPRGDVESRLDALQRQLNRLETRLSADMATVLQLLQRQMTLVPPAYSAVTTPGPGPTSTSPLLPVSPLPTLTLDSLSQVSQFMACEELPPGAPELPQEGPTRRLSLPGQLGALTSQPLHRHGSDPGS
Experimental: Cell culture and treatment: CHO cells stably expressing hERG were cultured in a cell culture flask and incubated in an incubator with 5% CO2 at 37 °C. When the cell density reached 60%-80%, the cell culture medium was removed by pipetting. The cells were washed once with PBS, and then Detachin was added for detachment. After complete detachment, a culture medium was added for neutralization. The cells were then centrifuged, and the supernatant was removed by pipetting. A culture medium was further added for resuspension, and the cell density was adjusted to (2-5) × 10^6 cells/mL for later use.
Compound preparation: The compound stock solution was diluted with 100% DMSO. Specifically, 10 µL of the compound stock solution was added to 20 µL of DMSO, followed by a 3-fold serial dilution to obtain 6 concentrations. 4 µL of each of the 6 compound solutions at different concentrations was taken and added to 396 µL of an extracellular fluid, resulting in a 100-fold dilution to obtain 6 intermediate concentrations. Then, 80 µL of each of the 6 intermediate-concentration compound solutions was taken and added to 320 µL of an extracellular fluid, resulting in a 5-fold dilution to achieve the final test concentrations. The highest test concentration was 40 µM. […] DMSO at this concentration has no effect on the hERG potassium channel. During the compound preparation, the entire dilution process was completed by a Bravo instrument.
Electrophysiological recording process: The single-cell high-impedance sealing and whole-cell mode formation processes were all completed automatically by a Qpatch instrument. After achieving the whole-cell recording mode, the cells were clamped at -80 mV. Before a 5-second +40 mV depolarizing stimulus was applied, a 50-millisecond -50 mV prepulse voltage was first applied. The potential was then repolarized to -50 mV and held for 5 s, and finally returned to -80 mV. This voltage stimulation was applied every 15 s. After 2 min of recording, the extracellular fluid was administered, followed by recording for 5 min. Then, the compound administration process began, starting from the lowest test compound concentration. Each test concentration was applied for 2.5 min. After all the concentrations were applied consecutively, the positive control compound, 3 µM Cisapride, was administered. At least 3 cells (n ≥ 3) were tested for each concentration.
Data processing: Data analysis and processing were performed using GraphPad Prism 5.0 and Excel software. The IC50 of the compound was calculated using GraphPad Prism 5 software by equation fitting as follows: Y = Bottom + (Top−Bottom)/(1+10^(∧)((LogIC50−X)*HillSLope)) [formula] where X is the Log value of the test concentration of the test sample, Y is the inhibition percentage at the corresponding concentration, and Bottom and Top are the minimum and maximum inhibition percentages, respectively. Table 17. Results of inhibition of hERG potassium ion channel by compounds

PARP1 = biological target: T2, PARP1 (Homo sapiens, UniProt P09874); test: PARP1 enzyme assay (histone-coated plate, chemiluminescence); assay type: biochemical; conditions: PARP1 0.02 nM, DNA 0.8 nM, NAD+ 3.5 µM; read-out: PARP-1 IC50
T2 construct: purchased BPS 80501
T2 sequence (P09874 whole entry): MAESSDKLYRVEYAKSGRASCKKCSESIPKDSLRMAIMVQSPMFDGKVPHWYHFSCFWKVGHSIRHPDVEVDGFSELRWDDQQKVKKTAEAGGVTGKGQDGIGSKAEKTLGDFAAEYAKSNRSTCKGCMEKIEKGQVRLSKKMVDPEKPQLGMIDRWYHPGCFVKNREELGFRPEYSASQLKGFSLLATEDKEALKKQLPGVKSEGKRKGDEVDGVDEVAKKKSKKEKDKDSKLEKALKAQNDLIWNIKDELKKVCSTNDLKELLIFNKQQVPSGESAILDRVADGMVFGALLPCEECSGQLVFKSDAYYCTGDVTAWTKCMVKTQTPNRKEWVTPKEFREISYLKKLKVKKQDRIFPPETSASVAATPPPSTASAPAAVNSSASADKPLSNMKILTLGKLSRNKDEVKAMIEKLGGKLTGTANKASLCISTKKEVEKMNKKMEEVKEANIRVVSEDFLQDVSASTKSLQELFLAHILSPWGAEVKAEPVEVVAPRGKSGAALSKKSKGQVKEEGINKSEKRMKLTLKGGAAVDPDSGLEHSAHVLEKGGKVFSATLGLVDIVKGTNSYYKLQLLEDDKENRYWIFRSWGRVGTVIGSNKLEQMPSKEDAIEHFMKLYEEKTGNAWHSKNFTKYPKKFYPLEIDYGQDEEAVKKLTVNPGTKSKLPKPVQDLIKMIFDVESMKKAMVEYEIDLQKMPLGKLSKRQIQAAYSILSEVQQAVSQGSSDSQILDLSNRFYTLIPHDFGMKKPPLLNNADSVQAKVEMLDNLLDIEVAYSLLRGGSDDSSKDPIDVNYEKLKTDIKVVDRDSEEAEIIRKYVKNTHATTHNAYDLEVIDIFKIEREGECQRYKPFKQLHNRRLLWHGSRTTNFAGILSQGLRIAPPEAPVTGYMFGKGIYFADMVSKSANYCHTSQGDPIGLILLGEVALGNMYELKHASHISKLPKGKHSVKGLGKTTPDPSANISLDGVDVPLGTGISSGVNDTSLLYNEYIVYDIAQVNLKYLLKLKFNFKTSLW

[2] = tested on: BRCA wild-type DLD-1 cells; test: Anti-proliferative activity against cells (CCK8): DLD-1; assay type: cell-based; conditions: Homo sapiens, 72 h + 96 h culture
Summary of the method: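 DLD-1 cells (1000/well) in RPMI-1640 with 10% FBS, treated 24 h after plating with PARPi at 0, 1 or 10 µM final. Cultured 72 h, medium exchanged with re-added PARPi, then a further 96 h; read-out by CCK8.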

[3] = tested on: BRCA-mutated MDA-MB-436 cells; test: Anti-proliferative activity against cells (CCK8): MDA-MB-436; assay type: cell-based; conditions: Homo sapiens, 72 h + 96 h culture
[4] = Cerebrospinal fluid and plasma distribution in vivo; conditions: rat, male rats, intravenous 5 mg/kg, n = 1
Experimental: Experimental procedures: The compound was weighed out, a small amount of DMSO was added, and then a sodium chloride solution for injection was added to prepare a 5 mg·mL^-1 compound solution for later administration. […] 10 µL of the plasma and 10 µL of the cerebrospinal fluid were each added to a centrifuge tube, and 40 µL of acetonitrile containing 20 ng·mL^-1 internal standard SAHA was added for precipitation. […] The supernatant was collected and transferred to a sample vial for later analysis. Range of standard curve: 1-1000 ng·mL^-1.

[5] = cerebrospinal fluid, read-out: Cerebrospinal fluid

SMILES	inhibitory effects on the hERG potassium ion channel (in words) [1]	inhibition at 2.5 min, 20 µM [1]	IC50 (PARP1)	IC50 [2]	IC50 [3]	concentration at 0.25 h [4, 5]	concentration at 2 h [4, 5]	concentration at 0.25 h ([4]; plasma, read-out: Plasma)	concentration at 2 h ([4]; plasma, read-out: Plasma)
CNC(=O)c1ccc(N2CCN(CC3Cc4[nH]c(=O)c(SC)cc4CO3)CC2)c(C)n1 (stereo not drawn) [Example 87, N,6-Dimethyl-5-(4-((3-(methylthio)-2-oxo-1,5,7,8-tetrahydro-2H-pyrano[4,3-b]pyridin-7-yl)methyl)piperazin-1-yl)picolinamide]	Conclusion: Compounds 2, 6, 45, 62, 67, 74, 83, 87, etc., of the present disclosure exhibited relatively weak inhibitory effects on the hERG potassium ion channel.	7.34%	≤ 50 nM	> 1000 nM	8.5 nM				
CCc1cc2c([nH]c1=O)CC(CN1CC=C(c3ccc(C(=O)NC)nc3F)CC1)OC2 (stereo not drawn) [Compound 6, 1'-((3-Ethyl-2-oxo-1,5,7,8-tetrahydro-2H-pyrano[4,3-b]pyridin-7-yl)methyl)-2-fluoro -N-methyl-1',2',3',6'-tetrahydro-[3,4'-bipyridine]-6-carbo xamide]	Conclusion: Compounds 2, 6, 45, 62, 67, 74, 83, 87, etc., of the present disclosure exhibited relatively weak inhibitory effects on the hERG potassium ion channel.	7.97%	≤ 50 nM	> 1000 nM	1 nM				
CNC(=O)c1ccc(N2CCN(CC3Cc4[nH]c(=O)c(C)cc4CO3)CC2)c(F)n1 (stereo not drawn) [Example 39, 6-Fluoro-N-methyl-5-(4-((3-methyl-2-oxo-1,5,7,8-tetrahydro-2H-pyrano[4,3-b]pyridin-7-yl)methyl)piperazin-1-yl)picolinamide]			50 to 500 nM	> 1000 nM		103 ng/g	26 ng/g	8200 ng/mL	4890 ng/mL
Cc1cc2c([nH]c1=O)CC(CN1CCN(c3ccc(C(=O)NC4CC4)nc3Cl)CC1)OC2 (stereo not drawn) [Example 62, 6-Chloro-N-cyclopropyl-5-(4-((3-methyl-2-oxo-1,5,7,8-tetrahydro-2H-pyrano[4,3-b]pyridin-7-yl)methyl)piperazin-1-yl)picolinamide]	Conclusion: Compounds 2, 6, 45, 62, 67, 74, 83, 87, etc., of the present disclosure exhibited relatively weak inhibitory effects on the hERG potassium ion channel.	49.8%	≤ 50 nM	> 1000 nM	3.5 nM				
CNC(=O)c1ccc(N2CCN(CC3COc4cc(C)c(=O)[nH]c4C3)CC2)c(F)n1 (stereo not drawn) [Example 101, 6-Fluoro-N-methyl-5-(4-((7-methyl-6-oxo-3,4,5,6-tetrahydro-2H-pyrano[3,2-b]pyridin-3-yl)methyl)piperazin-1-yl)picolinamide]			≤ 50 nM	> 1000 nM		52 ng/g	8 ng/g	2820 ng/mL	592 ng/mL
CNC(=O)c1ccc(N2CCN(CC3Cc4[nH]c(=O)c(Cl)cc4CO3)CC2)c(F)n1 (stereo not drawn) [Example 64, 5-(4-((3-Chloro-2-oxo-1,5,7,8-tetrahydro-2H-pyrano[4,3-b]pyridin-7-yl)methyl)piperazin-1-yl)-6-fluoro-N-methylpicolinamide]			50 to 500 nM	> 1000 nM		102 ng/g	0 ng/g	1620 ng/mL	503 ng/mL
CNC(=O)c1ccc(N2CCN(C[C@H]3CCc4nc(C)c(=O)[nH]c4C3)CC2)c(C)n1 [Example 47, (S)-N,6-Dimethyl-5-(4-((2-methyl-3-oxo-3,4,5,6,7,8-hexahydroquinoxalin-6-yl)methyl)piperazin-1-yl)picolinamide]			≤ 50 nM	> 1000 nM	4 nM	64 ng/g	13 ng/g	1010 ng/mL	43 ng/mL
CNC(=O)c1ccc(C2CCN(CC3Cc4[nH]c(=O)c(C)cc4CO3)CC2)c(F)n1 (stereo not drawn) [Example 59, 6-Fluoro-N-methyl-5-(1-((3-methyl-2-oxo-1,5,7,8-tetrahydro-2H-pyrano[4,3-b]pyridin-7-yl)methyl)piperidin-4-yl)picolinamide]			50 to 500 nM	> 1000 nM	300 nM				
CNC(=O)c1ccc(N2CCN(CC3Cc4[nH]c(=O)c(C)c(C)c4CO3)CC2)c(Cl)n1 (stereo not drawn) [Example 100, 6-Chloro-5-(4-((3,4-dimethyl-2-oxo-1,5,7,8-tetrahydro-2H-pyrano[4,3-b]pyridin-7-yl)methyl)piperazin-1-yl)-N-methylpicolinamide]			≤ 50 nM	> 1000 nM	15.5 nM				
CCc1cc2c([nH]c1=O)CC(CN1CC=C(c3ccc(C(=O)NC)nc3)CC1)OC2 (stereo not drawn) [Compound 5, 1'-((3-Ethyl-2-oxo-1,5,7,8-tetrahydro-2H-pyrano[4,3-b]pyridin-7-yl)methyl)-N-methyl-1',2',3',6'-tetrahydro-[3,4'-bipyridine]-6-carboxamide]			≤ 50 nM	> 1000 nM	7.5 nM				
CNC(=O)c1ccc(C2=CCN(CC3Cc4[nH]c(=O)c(C)cc4CO3)CC2)c(Cl)n1 (stereo not drawn) [Example 70, 2-Chloro-N-methyl-1'-((3-methyl-2-oxo-1,5,7,8-tetrahydro-2H-pyrano[4,3-b]pyridin-7-yl)methyl)-1',2',3',6'-tetrahydro-[3,4'-bipyridine]-6-carboxamide]			50 to 500 nM	> 1000 nM	300 nM				
CNC(=O)c1ccc(C2=CCN(CC3Cc4[nH]c(=O)c(C5CC5)cc4CO3)CC2)c(Cl)n1 (stereo not drawn) [Example 69, 2-Chloro-1'-((3-cyclopropyl-2-oxo-1,5,7,8-tetrahydro-2H-pyrano[4,3-b]pyridin-7-yl)methyl)-N-methyl-1',2',3',6'-tetrahydro-[3,4'-bipyridine]-6-carboxamide]			50 to 500 nM	> 1000 nM	180 nM				
CCc1cc2c([nH]c1=O)CC(CN1CCN(c3ccc(C(=O)NC4CC4)nc3)CC1)OC2 (stereo not drawn) [Compound 4, N-Cyclopropyl-5-(4-((3-ethyl-2-oxo-1,5,7,8-tetrahydro-2H-pyrano[4,3-b]pyridin-7-yl)methyl)piperazin-1-yl) picolinamide]			≤ 50 nM	> 1000 nM	4 nM				
CCc1cc2c([nH]c1=O)CC(CN1CCC(c3ccc(C(=O)NC)nc3F)CC1)OC2 (stereo not drawn) [Example 60, 5-(1-((3-Ethyl-2-oxo-1,5,7,8-tetrahydro-2H-pyrano[4,3-b]pyridin-7-yl)methyl)piperidin-4-yl)-6-fluoro-N-methylpicolinamide]			50 to 500 nM	> 1000 nM	120 nM				
[2H]C([2H])([2H])NC(=O)c1ccc(N2CCN(C[C@H]3CCc4nc(C)c(=O)[nH]c4C3)CC2)c(F)n1 [Example 82, (S)-6-Fluoro-N-(methyl-d3)-5-(4-((2-methyl-3-oxo-3,4,5,6,7,8-hexahydroquinoxalin-6-yl)methyl)piperazin-1-yl)picolinamide]				> 1000 nM		119 ng/g	0 ng/g	2740 ng/mL	77 ng/mL
